From patent publication US9914735B2, “Heteroaryl Syk inhibitors” (Boehringer Ingelheim International GmbH, priority 2014, dated 2018)
Read-outs that look alike come from different tables or passages of the source.

Experiments:
[1] = biological target: FLT3 (Homo sapiens (Human), UniProt P36888); assay: FLT3 kinase test (Z'-LYTE); type: biochemical
How it was run: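 Z'-LYTE FRET format; kinase reaction started with ATP, run 1 h at room temperature, then 1 h development before stop reagent. Controls without compound, without kinase, and phosphopeptide as 100% phosphorylation reference; values reported in M.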

[2] = biological target: Human GSK3beta (Homo sapiens (Human), UniProt P49841); assay: GSK 3beta kinase test (Z'-LYTE); type: biochemical; conditions: read-out: IC50 in μM (GSK3beta-Inhibition)
Human GSK3beta, sequence (P49841 whole entry): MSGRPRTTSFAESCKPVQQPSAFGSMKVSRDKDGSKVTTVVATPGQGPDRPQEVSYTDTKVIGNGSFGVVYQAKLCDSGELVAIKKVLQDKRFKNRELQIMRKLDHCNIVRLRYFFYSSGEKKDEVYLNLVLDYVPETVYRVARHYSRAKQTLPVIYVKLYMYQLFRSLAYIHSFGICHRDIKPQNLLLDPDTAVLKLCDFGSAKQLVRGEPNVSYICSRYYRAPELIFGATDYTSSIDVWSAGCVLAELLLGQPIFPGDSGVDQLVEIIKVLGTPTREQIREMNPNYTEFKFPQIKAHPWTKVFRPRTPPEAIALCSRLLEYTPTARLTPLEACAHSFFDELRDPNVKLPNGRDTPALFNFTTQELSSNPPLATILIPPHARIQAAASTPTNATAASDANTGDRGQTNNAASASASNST
Description: Human GSK3beta (expressed and prified from SF21 cells) is obtained from the University Dundee/Scotland (Dr. James Hastie—Dept. of Biochemistry) in 50 mM Tris (pH7.5); 150 mM NaCl; 0.1 mM EGTA, 270 mM Succrose, 0.1% β-mercaptoethanol, 1 mM benzamidine, 0.2 mM PMSF; sequence see below). The enzyme is diluted to 3.56 μM (168 μg/ml) in enzyme dilution buffer and 6 μl aliquots are stored at −80° C.
The activity of GSK3 kinase protein is measured using the Z′-LYTETM assay technology from Invitrogen (# PV3324).
The assay is performed in 384 black plates from Corning (#3676) in a final volume of 10 μl by adding 5 μl of kinase peptide mix and 2.5 μl of compound dilution. The reaction is started by addition of 2.5 μl of the 4×ATP solution.
Positive controls are reaction mixtures containing no test compound; negative controls (blanks) are reaction mixtures containing no ATP. As a further control, the phosphopeptide solution is added to wells without kinase and without ATP (=100% phosphorylation control).
The non inhibited kinase reaction will result in a phosphorylation corresponding to 20%-30% of the phosphorylation control.
The reaction is performed 1 h at room temperature. After 1h 5 μl of the development solution is added. After a further incubation for 1 h at room temperature 5 μl of the stop reagent is added. Finally the plates are read on a Flex Station II 384 (Molecular Devices).
The output text file is evaluated in an “MS-Excel—VB-Makro” and “GraphPadPrism” (Version 5) (GraphPad Software Inc.) is used to calculate the results. Data for the inhibition of GSK3beta are reported in M. data for the inhibition of the protease are reported in % CTL.

[3] = biological target: Recombinant human Aurora B (amino acids 1-344) (Homo sapiens (Human), UniProt Q96GD4); assay: Aurora B kinase test (ADP Glo luminescence); type: biochemical
Recombinant human Aurora B (amino acids 1-344), sequence (Q96GD4 whole entry, the tested form may be a part): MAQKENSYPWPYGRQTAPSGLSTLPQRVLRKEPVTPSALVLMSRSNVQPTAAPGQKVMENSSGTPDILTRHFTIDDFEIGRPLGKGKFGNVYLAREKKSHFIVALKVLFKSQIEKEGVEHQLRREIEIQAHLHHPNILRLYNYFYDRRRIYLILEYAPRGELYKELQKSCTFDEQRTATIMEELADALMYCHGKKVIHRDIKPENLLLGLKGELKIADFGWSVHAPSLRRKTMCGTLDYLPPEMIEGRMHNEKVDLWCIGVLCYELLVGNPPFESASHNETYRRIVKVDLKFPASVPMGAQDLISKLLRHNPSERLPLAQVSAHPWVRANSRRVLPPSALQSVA

[4] = Human liver microsomal stability test; type: in vitro ADME; conditions: human liver microsomes; Qh = liver blood flow
[5] = biological target: Recombinant human Syk (amino acids 342-635), GST-Syk kinase fusion protein (Homo sapiens (Human), UniProt P43405); assay: Syk kinase test (Kinase Glo luminescence); type: biochemical
[6] = Table 1, read-out: FLT3-inhibition IC50-value
[7] = read-out: IC50 in μM (FLT3-Inhibition)
[8] = Table 1, read-out: AURB-inhibition IC50-value
[9] = read-out: IC50 in μM (AURB-Inhibition)
[10] = Table 1, read-out: SYK-inhibition IC50-value
[11] = read-out: IC50 in μM (SYK-Inhibition)

FLT3, sequence (P36888 27-993): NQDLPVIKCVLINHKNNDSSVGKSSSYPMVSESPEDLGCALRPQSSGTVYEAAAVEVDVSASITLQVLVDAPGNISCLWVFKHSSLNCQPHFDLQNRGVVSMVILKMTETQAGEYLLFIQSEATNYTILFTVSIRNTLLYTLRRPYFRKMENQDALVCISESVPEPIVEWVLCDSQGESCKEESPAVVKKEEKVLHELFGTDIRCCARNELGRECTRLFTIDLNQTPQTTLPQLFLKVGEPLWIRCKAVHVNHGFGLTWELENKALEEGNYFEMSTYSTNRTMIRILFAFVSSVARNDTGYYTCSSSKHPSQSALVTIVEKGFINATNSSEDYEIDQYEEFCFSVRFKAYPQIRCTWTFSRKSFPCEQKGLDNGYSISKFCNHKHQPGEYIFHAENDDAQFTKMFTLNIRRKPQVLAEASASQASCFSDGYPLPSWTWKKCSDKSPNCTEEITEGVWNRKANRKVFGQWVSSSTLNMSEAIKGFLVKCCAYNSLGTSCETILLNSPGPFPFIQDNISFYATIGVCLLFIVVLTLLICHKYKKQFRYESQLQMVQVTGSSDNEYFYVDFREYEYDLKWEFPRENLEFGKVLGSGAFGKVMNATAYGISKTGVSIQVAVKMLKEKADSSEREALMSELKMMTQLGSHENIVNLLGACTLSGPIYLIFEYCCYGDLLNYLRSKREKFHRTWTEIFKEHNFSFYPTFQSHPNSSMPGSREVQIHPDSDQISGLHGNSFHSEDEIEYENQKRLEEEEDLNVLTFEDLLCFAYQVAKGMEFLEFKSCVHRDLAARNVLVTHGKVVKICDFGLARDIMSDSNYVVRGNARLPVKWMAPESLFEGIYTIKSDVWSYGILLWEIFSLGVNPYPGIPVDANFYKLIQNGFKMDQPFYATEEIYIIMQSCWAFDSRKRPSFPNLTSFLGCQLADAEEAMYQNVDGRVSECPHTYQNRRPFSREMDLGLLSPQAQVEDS

Compound | IC50 [1, 6] [µM] | IC50 [1, 7] [µM] | IC50 [2] [µM] | IC50 [3, 8] [µM] | IC50 [3, 9] [µM] | microsomal stability Cl [% Qh] [4] [% Qh] | IC50 [5, 10] [µM] | IC50 [5, 11] [µM]
C[C@@H](Oc1cc(-c2ccc3c(c2)c(N)nn3C)cc2nn(C)cc12)[C@H]1CNC(=O)C1 [Example 36, (4R)-4-[(1R)-1-[6-(3-amino-1-methyl-indazol-5-yl)-2-methyl-indazol-4-yl]oxyethyl]pyrrolidin-2-one] | 2.39 | 2.39 | > 10 | 35.2 | 35.2 | <23 | 0.0172 | 0.0172
C[C@@H](Oc1cc(-c2ccc(F)cn2)cc2nn(C)cc12)[C@H]1CNC(=O)C1 [Example 41, (4R)-4-[(1R)-1-[6-(5-fluoro-2-pyridyl)-2-methyl-indazol-4-yl]oxyethyl]pyrrolidin-2-one] | 42.8 | 42.8 | > 10 | > 50 | > 50 | <23 | 0.164 | 0.164
C[C@@H](Oc1cc(-c2ccc(C3CCN(C)CC3)cc2)cc2nn(C)cc12)[C@H]1CNC(=O)C1 [Example 42, (4R)-4-[(1R)-1-[2-methyl-6-[4-(1-methyl-4-piperidyl)-phenyl]indazol-4-yl]oxyethyl]-pyrrolidin-2-one] | 0.55 | 0.55 | > 10 | > 50 | > 50 | <23 | 0.0167 | 0.0167
COc1cc(-c2cc3nn(C)cc3c(O[C@H](C)[C@H]3CNC(=O)C3)n2)cc(OC)c1OC [Example 52, (4R)-4-[(1R)-1-[2-methyl-6-(3,4,5-trimethoxyphenyl)-pyrazolo[4,3-c]pyridin-4-yl]oxyethyl]pyrrolidin-2-one] | > 50 | > 50 | > 10 | > 50 | > 50 | <23 | 0.0413 | 0.0413
C[C@@H](Oc1nc(-c2ccc(N3CCN(C)CC3)cc2)cc2nn(C)cc12)[C@H]1CNC(=O)C1 [Example 67, (4R)-4-[(1R)-1-[2-methyl-6-[4-(4-methylpiperazin-1-yl)phenyl]pyrazolo[4,3-c]pyridin-4-yl]oxyethyl]-pyrrolidin-2-one] | 1.68 | 1.68 | > 10 | > 50 | > 50 | 34 | 0.0152 | 0.0152
COc1cc(-c2cc3nn(C)cc3c(O[C@H](C)[C@H]3CNC(=O)C3)n2)ccc1OC(C)C [Example 81, (4R)-4-[(1R)-1-[6-(4-isopropoxy-3-methoxy-phenyl)-2-methyl-pyrazolo-[4,3-c]pyridin-4-yl]oxyethyl]-pyrrolidin-2-one] | 5.24 | 5.24 | > 10 | 48.4 | 48.4 | <23 | 0.024 | 0.024

The remaining lines, values ahead:

IC50 [1, 6] [µM] | IC50 [1, 7] [µM] | IC50 [2] [µM] | IC50 [3, 8] [µM] | IC50 [3, 9] [µM] | microsomal stability Cl [% Qh] [4] [% Qh] | IC50 [5, 10] [µM] | IC50 [5, 11] [µM] | Compound
20.9 | 20.9 | > 10 | 49.8 | 49.8 | <23 | 0.366 | 0.366 | C[C@@H](Oc1nc(-c2ccc(C(F)F)nc2)cc2nn(C)cc12)[C@H]1CNC(=O)C1 [Example 51, (4R)-4-[(1R)-1-[6-[6-(difluoromethyl)-3-pyridyl]-2-methyl-pyrazolo[4,3-c]pyridin-4-yl]oxyethyl]pyrrolidin-2-one]
46.2 | 46.2 | > 10 | > 50 | > 50 | <23 | 0.144 | 0.144 | COc1ccc(-c2cc3nn(C)cc3c(O[C@H](C)[C@H]3CNC(=O)C3)n2)cn1 [Example 59, (4R)-4-[(1R)-1-[6-(6-methoxy-3-pyridyl)-2-methyl-pyrazolo-[4,3-c]pyridin-4-yl]oxyethyl]-pyrrolidin-2-one]
48.1 | 48.1 | > 10 | > 50 | > 50 | <23 | 0.475 | 0.475 | C[C@@H](Oc1nc(-c2ccc(C(F)(F)F)nc2)cc2nn(C)cc12)[C@H]1CNC(=O)C1 [Example 61, (4R)-4-[(1R)-1-[2-methyl-6-[6-(trifluoromethyl)-3-pyridyl]pyrazolo[4,3-c]pyridin-4-yl]oxyethyl]pyrrolidin-2-one]
4.78 | 4.78 | > 10 | > 50 | > 50 | <23 | 0.0193 | 0.0193 | C[C@@H](Oc1nc(-c2ccc3c(cnn3C)c2)cc2nn(C)cc12)[C@H]1CNC(=O)C1 [Example 62, (4R)-4-[(1R)-1-[2-methyl-6-(1-methylindazol-5-yl)pyrazolo[4,3-c]pyridin-4-yl]oxyethyl]pyrrolidin-2-one]
19.6 | 19.6 | 1.45 | > 50 | > 50 | <23 | 0.0526 | 0.0526 | C[C@@H](Oc1nc(-c2ccc3cnn(C)c3c2)cc2nn(C)cc12)[C@H]1CNC(=O)C1 [Example 72, (4R)-4-[(1R)-1-[2-methyl-6-(1-methylindazol-6-yl)pyrazolo[4,3-c]pyridin-4-yl]oxyethyl]pyrrolidin-2-one]
